Assay results from patent publication US7410975B2, “Small molecule toll-like receptor (TLR) antagonists” (Coley Pharmaceutical Group, Inc., priority 2003, dated 2008).
Like-named read-outs stand apart in the source and are kept apart here. Each block holds one compound with its values, some of them ahead of it.

What was measured:
Assay type in all cases: cell-based
[1] = molecular target: T1, human TLR9 (hTLR9) (Homo sapiens, UniProt Q9NR96)
T1 construct: expressed in transfected cells
T1 sequence (Q9NR96 26-1032): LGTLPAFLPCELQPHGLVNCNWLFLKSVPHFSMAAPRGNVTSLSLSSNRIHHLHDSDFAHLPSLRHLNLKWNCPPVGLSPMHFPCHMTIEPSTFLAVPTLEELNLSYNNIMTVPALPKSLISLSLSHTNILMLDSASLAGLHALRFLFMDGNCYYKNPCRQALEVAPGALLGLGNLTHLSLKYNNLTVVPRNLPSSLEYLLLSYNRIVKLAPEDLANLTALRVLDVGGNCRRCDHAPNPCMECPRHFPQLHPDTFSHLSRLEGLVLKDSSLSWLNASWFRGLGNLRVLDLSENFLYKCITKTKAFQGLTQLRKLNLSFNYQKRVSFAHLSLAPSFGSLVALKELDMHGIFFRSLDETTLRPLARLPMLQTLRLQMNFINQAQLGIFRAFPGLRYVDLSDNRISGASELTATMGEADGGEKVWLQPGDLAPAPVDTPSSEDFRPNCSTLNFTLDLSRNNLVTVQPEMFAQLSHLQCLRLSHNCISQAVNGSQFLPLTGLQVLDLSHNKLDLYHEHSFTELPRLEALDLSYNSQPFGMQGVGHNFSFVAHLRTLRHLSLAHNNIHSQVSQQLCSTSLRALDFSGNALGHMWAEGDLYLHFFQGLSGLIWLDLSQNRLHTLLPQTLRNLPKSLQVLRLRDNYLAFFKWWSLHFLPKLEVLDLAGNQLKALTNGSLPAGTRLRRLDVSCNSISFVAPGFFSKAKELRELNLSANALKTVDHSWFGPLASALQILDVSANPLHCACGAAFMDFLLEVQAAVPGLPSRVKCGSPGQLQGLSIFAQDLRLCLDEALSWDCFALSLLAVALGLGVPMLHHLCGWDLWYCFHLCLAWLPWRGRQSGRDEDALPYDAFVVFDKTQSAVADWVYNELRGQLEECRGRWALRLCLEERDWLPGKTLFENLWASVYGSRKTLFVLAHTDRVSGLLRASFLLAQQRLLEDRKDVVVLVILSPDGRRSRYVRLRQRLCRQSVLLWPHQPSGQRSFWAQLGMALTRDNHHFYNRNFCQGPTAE
Procedure: Stably co-transfecting the human TLR9 receptor (hTLR9) and an NF-κB promoter-driven luciferase gene into HEK-293 cells created the cell line hTLR9-NFkB-293. hTLR9-NFkB-293 cells were counted and seeded at 1.5×10^4 cells per well in 96-well cell culture plates one day before assaying and cultured at 37° C./5% CO2. The day of the assay, antagonist was added at 50 μM, 5.0 μM or 0.5 μM. The cells were then stimulated with the EC50 dose of the TLR9 agonist, CpG-ODN 2006, and cultured for 16 h in a humidified incubator at 37° C. The culture supernatant was removed and the cells were treated with lysis buffer and stored at −80° C. before measuring luciferase activity. The luciferase readout was measured according to manufacturer's instructions using a luciferase assay system available from Promega, USA. The antagonist dose listed in Table 18 is the minimum effective dose (μM) for blockade of the TLR9 agonist. As evident from the results presented in Table 18, the minimum effective dose (μM) for blockade of the TLR9 agonist was 0.5 μM or 5 μM for all of the compounds tested, as measured by this three-point assay.

[2] = molecular target: T2, hTLR9 (Homo sapiens, UniProt Q9NR96); assay: hTLR9 antagonism IC50, hTLR9-NFkB-293 cells, luciferase readout, CpG-ODN 2006 (Examples 8 and 18, Tables 19 and 20); conditions: for inhibition of TLR9 signaling in vitro (in words): CpG-ODN 2006
T2 construct: expressed in transfected cells
T2 sequence (Q9NR96 26-1032): T1 sequence (Q9NR96 26-1032)
Procedure: (§1) hTLR9-NFkB-293 cells were counted and seeded at 1.5×10^4 cells per well in 96-well cell culture plates one day before assaying and cultured at 37° C./5% CO2, as described in Example 7. The day of the assay, antagonist was added at varying concentrations starting at 50 μM with a 1/5 to 1/6 dilution for 7 steps. The cells were then stimulated with the EC50 dose of the TLR9 agonist, CpG-ODN 2006, and cultured for 16 h in a humidified incubator at 37° C. The culture supernatant was removed and the cells were treated with lysis buffer and stored at −80° C. before measuring luciferase activity as described in Example 7. […] Results shown in Table 19 under the heading hTLR9 are the IC50 dose (μM) for blockade of a CpG ODN-generated signal in hTLR9-NFkB-293 cells.
as §1, with “20” for “19”

[3] = molecular target: T1, human TLR9 (hTLR9); assay: Antagonist screen, hTLR9-NFκB-293 cells, 6× NF-κB-luciferase reporter, with EC50 of CpG ODN 2006; conditions: compound at 0.5, 5, 50 μg/ml; EC50 concentration of CpG ODN 2006; 16 h; NF-κB-luciferase
Procedure: Candidate small molecules for initial screening were obtained from a commercially available library of 880 off-patent small molecules selected for structural diversity and proven bioavailability in humans (Prestwick Chemical Library). […] Results were measured as fold induction over baseline luciferase activity measured in the absence of ODN 2006 and compared to fold induction over baseline in the presence of the EC50 concentration of ODN 2006 alone. […] Additional screening was performed in like manner using additional small molecules selected from another library or specifically prepared for this purpose.
The method is described in greater detail as follows. The cells for each individual cell clone (hTLR3-NFκB-293, hTLR7-NFκB-293, hTLR8-NFκB-293 and hTLR9-NFκB-293) were counted and seeded one day before the stimulation at 1.5×10^4 cells per well in 96-well cell culture plates. To become adherent the cells were incubated after seeding overnight at 37° C. in 5% CO2 humidified air.
The screen for each compound was performed at the same time for all of the receptors TLR3, TLR7, TLR8 and TLR9. Up to fifteen test compounds, each assayed in duplicate at each of three different final concentrations (0.5 μg/ml, 5 μg/ml, and 50 μg/ml), were used for 16 h cell stimulation on a single multiwell culture plate. A 4× final concentration master plate was created to prepare the different test compounds before they were added to the cells.
Controls were added as duplicates individually for each cell clone on the cell culture plate. Positive controls were used as follows (final concentrations): 50 μg/ml poly(I:C) for hTLR3-NFκB-293; 8 μM resiquimod (R848) for hTLR7-NFκB-293; 30 μM R848 for hTLR8-NFκB-293; and 2.5 μM CpG-ODN 2006 for hTLR9-NFκB-293. Media alone was used as negative control. After addition of controls and small molecules, the cell clones were additionally stimulated with the EC50 concentration of the appropriate receptor-specific ligand.
The mean value of wells H2 and H5 (each with cells and EC50 concentration of the appropriate receptor-specific ligand) divided by the mean of wells H3 and H6 (each with cells alone) yielded the baseline response (i.e., fold induction of luciferase activity) to EC50 concentration of the appropriate receptor-specific ligand.
After 16 h stimulation the supernatant was removed and the cells treated with lysis buffer and stored at −80° C. before measuring.
For each screen result a graphical documentation was performed.
The baseline result (measured with addition of the EC50 concentration of the receptor-specific ligand) for each cell culture plate was measured as described above. Antagonistic effects were measured by down regulation compared to the baseline. Antagonists were scored as follows: • 13: compounds for which there was clear down regulation at 0.5 μg/ml, 5 μg/ml, and 50 μg/ml; • 12: compounds for which there was clear down regulation at 5 μg/ml and 50 μg/ml; • 11: compounds for which there was clear down regulation only at 50 μg/ml; • —: compounds for which there was no clear down regulation even at 50 μg/ml. Agonists

[4] = three-point assay at 50, 5.0 or 0.5 μM, EC50 dose of CpG-ODN 2006, 16 h
[5] = hTLR9-NFkB-293 cells, EC50 dose of CpG-ODN 2006, 16 h, Table 19 quinazolines, read-out: hTLR9 (IC50 dose for blockade of a CpG ODN-generated signal)
[6] = hTLR9-NFkB-293 cells, EC50 dose of CpG-ODN 2006, 16 h, Table 20 diarylmethanes, read-out: hTLR9 (IC50 dose for blockade of a CpG ODN-generated signal)

Compound: Cc1ccc2nc3c(c(N)c2c1)CCN3c1ccccc1 [1552(127), 6-Methyl-1-phenyl-2,3-dihydro-1H-pyrrolo[2,3-b]quinolin-4-ylamine]
- antagonist dose (minimum effective dose for blockade of the TLR9 agonist) [1, 4]: 0.5 µM

Compound: CN(C)c1cc(N)c2ccccc2n1 [1553(128), N*2*,N*2*-Dimethyl-quinoline-2,4-diamine]
- antagonist dose (minimum effective dose for blockade of the TLR9 agonist) [1, 4]: 0.5 µM

- IC50 [2, 5]: 29 µM
Compound: CN(C)CCOc1nc(-c2ccccc2)nc2ccccc12 [CMZ 203-45, Dimethyl-[2-(2-phenyl-quinazolin-4-yloxy)-ethyl]-amine]

Compound: CN1CCN(c2ccc(C(O)c3ccccc3)cc2)CC1 (stereo not shown) [CMZ 203-84]
- IC50 [2]: 25.6 µM
- inhibition of TLR9 signaling in vitro (in words) ([2]; hTLR9-NFkB-293 cells): found to inhibit TLR9 signaling

Compound: CN(C)CCOC(c1ccccc1)c1ccc(N2CCN(C)CC2)cc1 (stereo not shown) [CMZ 203-85]
- inhibition of TLR9 signaling in vitro (in words) ([2]; hTLR9-NFkB-293 cells): found to inhibit TLR9 signaling
- IC50 [2, 6]: 0.372 µM

Compound: CN1CCN(c2ccc(-c3nc(NCCN4CCOCC4)c4ccccc4n3)cc2)CC1 [CMZ 203-87]
- IC50 [2, 5]: 0.02 µM

Compound: CN1CCN(c2ccc(Cc3ccccc3)cc2)CC1 [CMZ 203-88-1]
- IC50 [2]: 12 µM
- inhibition of TLR9 signaling in vitro (in words) ([2]; hTLR9-NFkB-293 cells): found to inhibit TLR9 signaling

Compound: CN1CCN(c2ccc(/C(=N\O)c3ccccc3)cc2)CC1 [CMZ 203-88]
- inhibition of TLR9 signaling in vitro (in words) ([2]; hTLR9-NFkB-293 cells): found to inhibit TLR9 signaling
- IC50 [2, 6]: 11.6 µM

Compound: CN(C)CCNC(c1ccccc1)c1ccc(N2CCN(C)CC2)cc1 (stereo not shown) [CMZ 203-89]
- inhibition of TLR9 signaling in vitro (in words) ([2]; hTLR9-NFkB-293 cells): found to inhibit TLR9 signaling
- IC50 [2, 6]: 0.241 µM

- IC50 [2, 5]: 5.43 µM
Compound: COc1cc2nc(N3CCN(c4ccccc4)CC3)nc(N)c2cc1OC [CMZ 203-90]

Compound: CN1CCN(c2ccc(C(c3ccccc3)N3CCN(C)CC3)cc2)CC1 (stereo not shown) [CMZ 203-91]
- inhibition of TLR9 signaling in vitro (in words) ([2]; hTLR9-NFkB-293 cells): found to inhibit TLR9 signaling
- IC50 [2, 6]: 3.95 µM

Compound: CN(C)CCCN1c2ccccc2CCc2ccccc21.Cl [compound 72, Imipraminehydrochloride]
- hTLR9 (inhibitory effect, antagonist score) [3]: 13 (compounds for which there was clear down regulation at 0.5 μg/ml, 5 μg/ml, and 50 μg/ml)

Compound: Cl.Nc1c2c(nc3ccccc13)CCCC2 [compound 329, 1,2,3,4-Tetrahydro-acridin-9-ylamine Tacrine hydrochloridehydrate, reference compound]
- antagonist dose (minimum effective dose for blockade of the TLR9 agonist) [1]: 5.0 µM

Compound: Nc1c2c(nc3ccccc13)CCCCC2 [compound 936, 7,8,9,10-Tetrahydro-6H-cyclohepta[b]quinolin-11-ylamine]
- antagonist dose (minimum effective dose for blockade of the TLR9 agonist) [1, 4]: 0.5 µM

Compound: Nc1c2c(nc3ccccc13)CCC2 [compound 1061, 2,3-Dihydro-1H-cyclopenta[b]quinolin-9-ylamine]
- antagonist dose (minimum effective dose for blockade of the TLR9 agonist) [1, 4]: 5.0 µM

Compound: CC1(C)C=Cc2c(nc3ccccc3c2N)C1 [compound 1201, 3,3-Dimethyl-3,4-dihydro-acridin-9-ylamine]
- antagonist dose (minimum effective dose for blockade of the TLR9 agonist) [1, 4]: 0.5 µM

Compound: Cc1cc(C)c2c(N)c3cccc(C)c3nc2n1 [compound 1227, 2,4,9-Trimethyl-benzo[b][1,8]naphthyridin-5-ylamine]
- antagonist dose (minimum effective dose for blockade of the TLR9 agonist) [1, 4]: 5.0 µM

Compound: CC1(C)Cc2nc3ccccc3c(N)c2C(O)C1 (stereo not shown) [compound 1286, 9-Amino-3,3-dimethyl-1,2,3,4-tetrahydro-acridin-1-ol]
- antagonist dose (minimum effective dose for blockade of the TLR9 agonist) [1, 4]: 5.0 µM

Compound: Cc1ccc2nc3nc4c(C)cccc4c(N)c3cc2c1 [compound 1595, 2,7-Dimethyl-dibenzo[b,g][1,8]naphthyridin-11-ylamine]
- antagonist dose (minimum effective dose for blockade of the TLR9 agonist) [1, 4]: 0.5 µM

Compound: CCOc1ccc2nc3cc(NCc4ccco4)ccc3c(N)c2c1 [compound 1674, 7-Ethoxy-N*3*-furan-2-ylmethyl-acridine-3,9-diamine]
- antagonist dose (minimum effective dose for blockade of the TLR9 agonist) [1, 4]: 5.0 µM

Compound: Cc1cc(C)c2c(N)c3ccccc3nc2n1 [compound 1690, 2,4-Dimethyl-benzo[b][1,8]naphthyridin-5-ylamine]
- antagonist dose (minimum effective dose for blockade of the TLR9 agonist) [1, 4]: 0.5 µM

Compound: Cc1cc(C)c2c(N)c3cc(F)ccc3nc2n1 [compound 1727, 7-Fluoro-2,4-dimethyl-benzo[b][1,8]naphthyridin-5-ylamine]
- antagonist dose (minimum effective dose for blockade of the TLR9 agonist) [1, 4]: 0.5 µM
